Experimental data: article PMC10254852, “Design, Synthesis and Anticancer Evaluation of Nitroimidazole Radiosensitisers” (Molecules, 2023)
≈ marks a conversion by molar mass, not a printed value. Read-outs that look alike come from different tables or passages of the source.

Key:
[1] = Solubility in αMEM culture medium (HPLC of saturated solutions); format: physicochemical; conditions: αMEM culture medium with 5% foetal calf serum and 1% DMSO, plasma or biological fluid, kinetic from dmso stock, α-MEM culture medium containing 5% foetal calf serum, 37 °C
[2] = system: FaDu cells; test: In vitro cytotoxicity, 4 h exposure oxic/anoxic, 5-day regrowth, sulforhodamine B; format: cell-based; conditions: for IC50: Homo sapiens, 4 h exposure, mean ± SEM; for HCR: IC50(oxic)/IC50(anoxic)
Text: (§1) This allowed derivation of hypoxia cytotoxicity ratios (HCR) as IC50(oxic)/IC50(anoxic) in an HCT116 subclone HCT116/54C and two HNSCC cell lines, FaDu and UT-SCC-74B (Table 2).
(§2) HCT116/54C is an HCT116 subline that originated from a mixed culture with UT-SCC-54C cells, which was supplied alongside UT-SCC-74B by Prof. Bradly Wouters (University Health Network, Toronto, ON, Canada). HCT116/54C and UT-SCC-74B cells were passaged in minimum essential media (MEM, ThermoFisher Scientific, Waltham, MA, USA) with 10% foetal calf serum (FCS, Moregate Biotech, Hamilton, New Zealand), 4.5 mg/mL D-glucose (Sigma-Aldrich, St. Louis, MO, USA) and 20 mM HEPES (Sigma-Aldrich). FaDu cells were sourced from American Type Culture Collection and cultured in αMEM (ThermoFisher Scientific) with 10% FCS. All cell lines were confirmed mycoplasma-free by PlasmoTest (InvivoGen, San Diego, CA, USA) and were derived from STR-authenticated cryopreserved stocks. Log-phase cells were seeded into 96-well plates at 800 cells/well for HCT116/54C and 1500 cells/well for FaDu. […] After drug washout, cells were grown and stained as for the oxic IC50 assays. The hypoxic cytotoxicity ratio HCR was determined as HCR = IC50(oxic)/IC50(anoxic).

[3] = system: HCT116/54C cells; test: In vitro radiosensitisation under anoxia, clonogenic survival; format: cell-based, human; conditions: compound 1 mM, radiation dose for 1% survival/radiation dose for 1% survival with compound, mean ± SEM
Description: Next, we evaluated in vitro radiosensitisation by using a representative subset of nitroimidazole compounds in HCT116/54C cells with a clonogenic survival endpoint. Radiosensitisation was determined by treating cells under anoxia with a range of radiation doses alone and with compounds at equimolar doses (1 mM). Sensitiser enhancement ratios (SER) were calculated as the ratio of radiation dose required for 1% clonogenic survival alone or with compound (Table 3).
Cells were seeded onto 96-well plates at 10^5 cells per well and allowed to attach for 2 h. […] The plates were irradiated (Eldorado 78 ^60Co teletherapy unit, ~2 Gy/min) with 15 Gy under anoxia at room temperature for SR experiments. A metal wedge placed on the top of the metal chamber was used to achieve a graduated radiation dose across the plate, varying from 7 to 29 Gy, calibrated by Fricke dosimetry with ammonium thiocyanate as previously described for SER experiments. The control plate (compound alone, no radiation) was left inside the anaerobic chamber at room temperature during the irradiation period. After treatment, the cells were trypsinized and suspended in usual media + 1% penicillin-streptomycin (ThermoFisher Scientific), and 10-fold serial dilutions were plated for clonogenic survival. After 10 days, plates were stained with methylene blue (2 g/L in EtOH/H2O, 1:1 v/v) and colonies with more than 50 cells were counted. The surviving fraction (SF) was determined as: SF = PE(irradiated)/PE(control) where the plating efficiency (PE) = (No. of colonies)/(No. of cells plated). SF was plotted against radiation dose. Survival ratios (SR) were calculated: SR = (cell survival with radiation)/(cell survival with drug + radiation). Sensitizer enhancement ratios (SER) were calculated: SER = (radiation dose for 1% survival without compound)/(radiation dose for 1% survival with compound).

[4] = system: HCT116/54C cells; test: In vitro cytotoxicity, 4 h exposure oxic/anoxic, 5-day regrowth, sulforhodamine B; format: cell-based, human; conditions: HCT116/54C; for HCR: IC50(oxic)/IC50(anoxic); for IC50: Homo sapiens, 4 h exposure, mean ± SEM, n = 3–4
Text: as §1, §2

[5] = Stability in αMEM culture medium (HPLC after 24 h); format: physicochemical; conditions: after 24 h incubation at 37 °C
Description: The stability of the same solutions after 24 h incubation at 37 °C was measured by HPLC analysis.

[6] = system: UT-SCC-74B cells; test: In vitro cytotoxicity, 4 h exposure oxic/anoxic, 5-day regrowth, sulforhodamine B; format: cell-based, human; conditions: for IC50: Homo sapiens, 4 h exposure, mean ± SEM; for HCR: IC50(oxic)/IC50(anoxic)
Text: as §1, §2

[7] = system: HCT116/54C tumours; test: Tumour radiosensitisation: ex vivo clonogenic assay; format: in vivo, NIH-III mice; conditions: for Sensitisation Ratio: 2.2 mmol/kg i.v. 5 min prior to 10 Gy radiation, surviving fraction after radiation/surviving fraction after drug + radiation; for enhancement of tumour killing of radiotherapy (RAD vs drug + RAD): 2.2 mmol/kg i.v. + 10 Gy, one-way ANOVA
Description: (§3) Specific pathogen-free six- to eight-week-old female NIH-III mice, bred in the Vernon Jansen Unit, University of Auckland, were used for animal experiments. Animals had ad libitum access to food and water and were maintained in microisolator cages on a 12 h light/dark cycle. All treatments were administered by i.v. injection at a dose of 2.2 mmol/kg and injection volume of 10 mL/kg. Compounds 2, 34 and 38 were administered as solutions in saline containing 1% DMSO or for 9–12 as solutions in saline containing 2 molar equivalents of NaHCO3. Control animals received an i.v. injection of saline at 10 mL/kg. All animal experiments were conducted under the auspices of the University of Auckland Animal Ethics Committee (approval 1781).
(§4) Compounds were evaluated for in vivo radiosensitisation of hypoxic cells in HCT116/54C and UT-SCC-74B human tumour xenografts using clonogenic survival as an endpoint, using previously report methods. Tumours were grown subcutaneously on the flanks of NIH-III mice by injecting 5 × 10^6 HCT116/54C cells or UT-SCC-74B cells. Once tumours reached a volume of approximately 250 mm^3, mice were randomly assigned to 4 treatment groups and treated with: (A) vehicle control, (B) 10 Gy RAD only, (C) sensitiser only, or (D) sensitiser given before 10 Gy RAD. Drugs were administered as a single i.v. dose at 2.2 mmol/kg. […] Tumours were excised 18 h after treatment, and tumour cells were dissociated enzymatically and plated to determine the number of surviving (clonogenic) cells per gram of tumour tissue. SF and SR were calculated as described above. Statistical significance of drug effects was tested using one-way ANOVA with Sidak tests for multiple comparisons vs. radiation alone (Table 5).

[8] = system: UT-SCC-74B tumours; test: as above; format: in vivo, NIH-III mice; conditions: for Sensitisation Ratio: 2.2 mmol/kg i.v. 5 min prior to 10 Gy radiation, surviving fraction after radiation/surviving fraction after drug + radiation; for enhancement of tumour cell killing by radiotherapy (RAD vs drug + RAD): 2.2 mmol/kg i.v. + 10 Gy, one-way ANOVA
Description: as §3, §4

[9] = parameters: method as in PMID 29253343; conditions: NIH-III mice, 2.2 mmol/kg i.v., cited from earlier work; for Cmax: read-out: Plasma Cmax
[10] = system: HCT116/54C tumour xenografts; test: Tumour growth inhibition in combination with radiation; format: in vivo, NIH-III mice; conditions: HCT116/54C tumours, fractionated radiation, p < 0.05
Description: as §3
Compounds were evaluated for their ability to inhibit tumour growth in combination with a single dose of radiation (10 Gy) in HCT116/54C or UT-SCC-74B tumour xenografts on the backs of NIH-III mice. In addition, a fractionated radiation schedule (5 Gy on Days 1, 7 and 14) was explored in HCT116/54C tumour xenografts. Mice were randomly assigned to 4 treatment groups and treated with: (A) vehicle control, (B) 10 Gy RAD only, (C) sensitiser only, or (D) sensitiser given 10 min before 10 Gy RAD. Drugs were administered by i.v. injection at 2.2 mmol/kg either as a single dose or three doses on Days 1, 7 and 14 in the fractionated study. Treatment commenced when the average tumour size reached approximately 250 mm^3, and tumour size was measured until study endpoint. Mice were placed in a custom-built lead-shielded jig that allowed irradiation of the whole tumour but shielded the mouse from radiation. Survival analysis represented the time taken for tumours to increase in relative tumour volume by 4× from the start of treatment (RTV^4). The significance of differences in activity between the groups was assessed by log-rank with Holm–Sidak multiple comparison analysis.

[11] = parameters: method as in PMID 29253343; conditions: comparison values for earlier alcohols; cited from earlier work
[12] = anoxic, n = 3–4, read-out: IC50 Anoxic
[13] = oxic, n = 3–4, read-out: IC50 Oxic
[14] = drug alone 2.2 mmol/kg i.v., relative to untreated tumours

Row | solubility [1] [mM] | % Stability in αMEM [5] [%] | melting point [°C] | Structure (SMILES) | IC50 [2, 12] [mM] | IC50 [2, 13] [mM] | HCR [2] | SER at 1 mM [3] | HCR [4] | IC50 ([4]; anoxic, read-out: IC50 Anoxic) [mM] | IC50 ([4]; oxic, read-out: IC50 Oxic) [mM] | IC50 [6, 12] [mM] | IC50 [6, 13] [mM] | HCR [6] | also measured
1 | 95.8 (≈ 29.7 mg/mL) | 98.5 | 128 to 131 | O=[N+]([O-])c1nccn1CS(=O)(=O)NC(CO)C(O)CO (stereo not shown) [Compound 14, 1-(2-Nitro-1H-imidazol-1-yl)-N-(1,3,4-trihydroxybutan-2-yl)methanesulfonamide] | 7.9 ± 1.1 | 5.3 ± 1.1 | 0.67 | 1.00 ± 0.00 | 1.3 | 12.6 ± 0.5 | 16.4 ± 3 | – | – | – | –
2 | > 101 | 100.0 | 124 to 127 | O=[N+]([O-])c1nccn1CCNS(=O)(=O)CCO [Compound 17, 2-Hydroxy-N-(2-(2-nitro-1H-imidazol-1-yl)ethyl)ethane-1-sulfonamide] | 2.8 ± 0.6 | > 18 | >6.4 | 1.35 ± 0.02 | >5.3 | 3.2 ± 0.2 | > 17 | 2.9 ± 0.5 | > 20 | >6.8 | –
3 | 110 (≈ 30.8 mg/mL) | 99.3 | 127 to 129 | O=[N+]([O-])c1nccn1CS(=O)(=O)NCC(O)CO (stereo not shown) [Compound 13, N-(2,3-Dihydroxypropyl)-1-(2-nitro-1H-imidazol-1-yl)methanesulfonamide] | 4.3 ± 0.3 | 8.7 ± 1.1 | 2.0 | 1.00 ± 0.00 | 3.5 | 4.1 ± 0.1 | 14.5 ± 2.9 | 2.6 ± 0.1 | 10.3 ± 1.7 | 4.0 | –
4 | 84.3 (≈ 24.8 mg/mL) | 99.9 | 120 to 123 | O=[N+]([O-])c1nccn1CCS(=O)(=O)NCC(O)CO (stereo not shown) [Compound 15, N-(2,3-Dihydroxypropyl)-2-(2-nitro-1H-imidazol-1-yl)ethane-1-sulfonamide] | 7.3 ± 0.9 | > 25 | >3.4 | – | >1.9 | 12.8 ± 4.4 | > 25 | – | – | – | –

The remaining lines, values behind:

Row | Structure (SMILES) | solubility [1] [mM] | % Stability in αMEM [5] [%] | melting point [°C] | IC50 [2, 12] [mM] | IC50 [2, 13] [mM] | HCR [2] | SER at 1 mM [3] | HCR [4] | IC50 ([4]; anoxic, read-out: IC50 Anoxic) [mM] | IC50 ([4]; oxic, read-out: IC50 Oxic) [mM] | IC50 [6, 12] [mM] | IC50 [6, 13] [mM] | HCR [6] | also measured
5 | O=C(Cn1ccnc1[N+](=O)[O-])NCCO [Compound 2, etanidazole, reference compound] | – | – | – | 1.5 ± 0.3 | > 20 | >13.3 | 1.18 ± 0.00 | >14.8 | 1.7 ± 0.2 | > 25 | – | – | – | Sensitisation Ratio [7]: 3.34; enhancement of tumour killing of radiotherapy (RAD vs drug + RAD) [7]: significantly enhanced the tumour killing of radiotherapy; Sensitisation Ratio [8]: 8.94; enhancement of tumour cell killing by radiotherapy (RAD vs drug + RAD) [8]: significantly enhanced tumour cell killing by radiotherapy; single agent cell kill [8, 14]: 55.9 ± 1.1%; AUC [9]: 1820 µM·h; T1/2 [9]: 1.05 h; Cmax [9]: 3640 µM; survival (time to RTV^4) vs radiation alone [10]: significantly increased survival compared to radiation alone
6 | O=[N+]([O-])c1nccn1CS(=O)(=O)NCCOP(=O)(O)O [Compound 9] | – | – | – | – | – | – | – | – | – | – | – | – | – | Sensitisation Ratio [7]: 6.22; enhancement of tumour killing of radiotherapy (RAD vs drug + RAD) [7]: significantly enhanced the tumour killing of radiotherapy; single agent cell kill [7, 14]: 65.7 ± 8.2%; Sensitisation Ratio [8]: 9.64; enhancement of tumour cell killing by radiotherapy (RAD vs drug + RAD) [8]: significantly enhanced tumour cell killing by radiotherapy; AUC [9]: 550 µM·h; T1/2 [9]: 2.33 h; Cmax [9]: 920 µM
7 | O=[N+]([O-])c1nccn1CS(=O)(=O)NCCO [Compound 5] | – | – | – | 0.23 ± 0.01 | 2.3 ± 0.2 | 10.0 | 1.72 ± 0.06 | >21 | 0.29 ± 0.02 | > 6.2 | 0.24 ± 0.04 | 4.3 ± 0.8 | 17.7 | aqueous solubility [11]: 18 mM (≈ 4.5 mg/mL)
8 | O=[N+]([O-])c1cncn1CCS(=O)(=O)NCCN1CCOCC1 [Compound 16, N-(2-Morpholinoethyl)-2-(5-nitro-1H-imidazol-1-yl)ethane-1-sulfonamide] | 83 (≈ 27.7 mg/mL) | 99.9 | – | 6.1 ± 0.8 | > 16 | >2.6 | 1.31 ± 0.01 | 1.0 | 12.9 ± 0.9 | 12.8 ± 1.5 | 10.3 ± 2.6 | 14.1 ± 2.1 | 1.4 | –
9 | O=[N+]([O-])c1cncn1CS(=O)(=O)NCCO [Compound 7] | – | – | – | 1.4 ± 0.02 | 5.4 ± 0.7 | 4.0 | 1.41 ± 0.02 | 3.3 | 1.4 ± 0.1 | 4.6 ± 0.3 | 1.3 ± 0.04 | 4.2 ± 0.9 | 3.3 | aqueous solubility [11]: 23 mM (≈ 5.76 mg/mL)
